Source: patent US8999408B2, “Amla extract for transdermal application” (priority 2006, dated 2015)

How the values were obtained:
[1] = Transdermal diffusion of Vitamin C / reductones across guinea pig abdominal skin in a diffusion cell; format: in vitro ADME; conditions: for Reductones transported across the guinea pig membrane: 3 hours, 37° C., phosphate buffer pH 7; for Fraction trans-dermal percent: 10 mg applied, after 3 hours, relative to reductone equivalent present in application
Procedure: The diffusion studies were carried out across the guinea pig abdominal skin. […] The guinea pig abdominal skin was placed between the upper and lower chambers of the diffusion cell, thereby separating the 2 chambers. The test composition was introduced into the upper chamber. Migration of the components from the upper chamber to the lower chamber (which had liquid or buffer at body pH) through the guinea pig abdominal skin allowed comparative studies for extent of migration of the components from different test compositions.
After introducing the test material in the upper chamber, the diffusion was carried out for 3 hours.
The lower chamber of the diffusion cells were filled with 15 ml of phosphate buffer, pH 7, and the prepared guinea pig skins were fixed on each diffusion cell between the upper and lower chambers of the diffusion cell. The temperature of the diffusion cell was maintained at 37° C.
The diffusion across the skin membrane of active ingredients, that is, scorbutic reductones (that is Vitamin C actives substances including ascorbic acid) and hydrogen ions was carried out for three hours.
To an aliquot (5 ml) of supernatant of the HPO3 extract 2.5 ml of acetone was added and the resulting solution was titrated with dye 2,6-dichloro indophenol until a faint pink color persisted for 15 seconds. The concentration of Vitamin C in the sample was expressed as mg ascorbic acid equivalent to 1 ml of the dye solution.

[2] = Radical scavenging by the DPPH (diphenylpicryl-hydrazyl) method; conditions: 10 mg dose

Which “Reductones transported across the guinea pig membrane” value ([1]; 10 mg applied on guinea pig membrane) does the source give for `O=C1O[C@H]([C@@H](O)CO)C(O)=C1O` [ascorbic acid] here?
Its value is 0.3 mg.

What about the Fraction trans-dermal percent [1] of the same molecule?
The Fraction trans-dermal percent was 3.0%.

What about the Fraction trans-dermal percent ([1]; listed as Vitamin C) of the same molecule?
The Fraction trans-dermal percent was 3%.

What about the “Reductones transported across the guinea pig membrane” value ([1]; 100 mg applied on guinea pig membrane) of the same molecule?
Its value is 8.4 mg.

What about the “inhibition (DPPH radical scavenging)” value [2] of the same molecule?
The value was −4.66%.
